Consider six compounds from PubChem BioAssay (NCI).

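Five compound concentrations were applied to cells in 96-well plates for 48 hours; endpoints were derived by simple linear interpolation of the resulting dose-response curve. Here, GI50 denotes the concentration required for 50% inhibition of growth. TGI is the concentration that stops growth completely.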

Among the test systems are COLO 205 colon; MALME-3M melanoma; NCI-H522 lung; IGROV1 ovarian; EKVX NSCLC; SNB-75 CNS; NCI-H226 lung; SK-MEL-5 melanoma; MDA-MB-435; A549 NSCLC.
Common to all, as to test: DTP human tumour cell line panel, 48 h

Consider `CC(=O)NC(CCCCN(Cc1ccccc1)C(=O)N(CCCl)N=O)C(=O)NCc1ccccc1` (stereo not given), for which the TGI in the experiment on COLO 205 colon is 67.2 µM; in the experiment with MALME-3M melanoma, 58.1 µM; in the experiment with NCI-H522 lung it was 53.8 µM; in the experiment with IGROV1 ovarian, 60 µM; in the experiment with EKVX NSCLC, 97.9 µM; in the experiment on SNB-75 CNS it was 63.8 µM. Moreover, the total growth inhibition concentration (TGI) is more than 96.7 µM with NCI-H226 lung, more than 100 µM in the experiment on SK-MEL-5 melanoma, more than 100 µM in the experiment on MDA-MB-435 and 49.5 µM in the experiment on A549 NSCLC.

Take `CC(=O)O[C@H]1C(=O)[C@@]2(C)[C@H]([C@H](OC(=O)c3ccccc3)[C@@]3(O)C[C@H](O)C(C)=C1C3(C)C)[C@]1(OC(C)=O)CO[C@@H]1C[C@@H]2O`: the concentration for total growth inhibition (TGI) was 81.5 µM in the experiment with COLO 205 colon; more than 100 µM with MALME-3M melanoma; 44.1 µM in the experiment with NCI-H522 lung; more than 100 µM with IGROV1 ovarian; more than 100 µM in the experiment with EKVX NSCLC; more than 100 µM in the experiment on SNB-75 CNS. Moreover, the TGI in the experiment on NCI-H226 lung is more than 100 µM; with SK-MEL-5 melanoma, more than 100 µM; with MDA-MB-435, 27.5 µM; in the experiment with A549 NSCLC, more than 100 µM.

For `COc1cc(-c2ccc(NC(=O)NC3CC3)c(OC)c2)ccc1NC(=O)NC1CC1`, the GI50 is 7.67 µM in the experiment with COLO 205 colon; 4.99 µM in the experiment on MALME-3M melanoma; 4.94 µM in the experiment with NCI-H522 lung; 5.83 µM with IGROV1 ovarian; more than 100 µM with EKVX NSCLC; 12.1 µM in the experiment with SNB-75 CNS. Further, the GI50 was 7.25 µM with NCI-H226 lung, 4.84 µM with SK-MEL-5 melanoma, 9.18 µM in the experiment with MDA-MB-435 and 3.89 µM in the experiment with A549 NSCLC. Further, the TGI in the experiment on COLO 205 colon was more than 100 µM; in the experiment on MALME-3M melanoma, more than 100 µM; with NCI-H522 lung, more than 62.5 µM; with IGROV1 ovarian, 52.9 µM; in the experiment with EKVX NSCLC, more than 100 µM; in the experiment on SNB-75 CNS, more than 85.8 µM. Also, the TGI with NCI-H226 lung, with SK-MEL-5 melanoma, in the experiment with MDA-MB-435 and with A549 NSCLC was more than 100 µM throughout.

`O=C(Nc1cccnc1)c1ccc2ccc3ccc(C(=O)Nc4cccnc4)nc3c2n1`: the GI50 in the experiment with COLO 205 colon was 0.135 µM; in the experiment on MALME-3M melanoma, more than 100 µM; in the experiment with NCI-H522 lung, 0.525 µM; in the experiment on IGROV1 ovarian, 0.125 µM; in the experiment on EKVX NSCLC, 0.294 µM; in the experiment on SNB-75 CNS it was 0.273 µM. In addition, the GI50 is 0.128 µM with NCI-H226 lung, 0.271 µM in the experiment with SK-MEL-5 melanoma, 0.184 µM with MDA-MB-435 and 0.135 µM in the experiment with A549 NSCLC. Further, the concentration for total growth inhibition (TGI) with COLO 205 colon, in the experiment on MALME-3M melanoma, in the experiment on NCI-H522 lung, in the experiment on IGROV1 ovarian, with EKVX NSCLC and with SNB-75 CNS was more than 100 µM throughout. For the same compound, the TGI in the experiment with NCI-H226 lung, in the experiment with SK-MEL-5 melanoma, with MDA-MB-435 and in the experiment on A549 NSCLC was more than 100 µM in each case.

With `CCOC(=O)c1csc(NC(=O)COc2cccc(/C=C3\CSc4ccccc4C3=O)c2)n1`, the GI50 in the experiment on COLO 205 colon was 8.58 µM; in the experiment on MALME-3M melanoma it was 0.296 µM; with NCI-H522 lung, 0.581 µM; in the experiment with IGROV1 ovarian, 0.166 µM; with EKVX NSCLC, 2.29 µM; in the experiment on SNB-75 CNS, 0.275 µM. In addition, the GI50 with NCI-H226 lung is 1.52 µM; in the experiment on SK-MEL-5 melanoma, 5.04 µM; in the experiment on MDA-MB-435 it was 2.05 µM; in the experiment on A549 NSCLC it was 2.41 µM. Moreover, the total growth inhibition concentration (TGI) in the experiment with COLO 205 colon was 22.6 µM; with MALME-3M melanoma it was 1.22 µM; with NCI-H522 lung, 1.49 µM; in the experiment with IGROV1 ovarian, 0.363 µM; in the experiment on EKVX NSCLC, 19.9 µM; in the experiment on SNB-75 CNS it was 4.45 µM. Further, the TGI in the experiment on NCI-H226 lung stood at 3.41 µM; in the experiment with SK-MEL-5 melanoma, 17.3 µM; in the experiment on MDA-MB-435, 5.06 µM; with A549 NSCLC, 18.5 µM.

For the compound `Cc1cn2c(/C=C3/C(=O)Nc4ccc(F)cc43)c(C)nc2s1`, the GI50 was 1.91 µM with COLO 205 colon; 7.26 µM in the experiment with MALME-3M melanoma; 3.22 µM in the experiment with NCI-H522 lung; 2.14 µM with IGROV1 ovarian; 17.3 µM with EKVX NSCLC; 3.76 µM with SNB-75 CNS. Moreover, the GI50 is 17.1 µM in the experiment on NCI-H226 lung, 2.31 µM in the experiment on SK-MEL-5 melanoma, 1.26 µM with MDA-MB-435 and 6.37 µM in the experiment on A549 NSCLC. For the same compound, the TGI in the experiment on COLO 205 colon is more than 50 µM; in the experiment on MALME-3M melanoma, more than 50 µM; in the experiment on NCI-H522 lung it was 18.7 µM; in the experiment with IGROV1 ovarian it was 25 µM; in the experiment on EKVX NSCLC, more than 50 µM; with SNB-75 CNS, 15.6 µM. Besides, the total growth inhibition concentration (TGI) in the experiment on NCI-H226 lung is more than 50 µM; in the experiment with SK-MEL-5 melanoma it was 9.61 µM; with MDA-MB-435, 2.97 µM; with A549 NSCLC, more than 50 µM.
